From paper PMC1413570, “Testing Electrostatic Complementarity in Enzyme Catalysis: Hydrogen Bonding in the Ketosteroid Isomerase Oxyanion Hole” (PLoS Biology, 2006)
Where two headings read alike, the source gives them in different places. Marks after values point to notes of the source that are not given here. Each block holds one compound with its values, some of them ahead of it.

Tests used:
[1] = target: pKSI^D40N (ketosteroid isomerase) (Pseudomonas putida, UniProt P07445, D34C/D40N); assay: biochemical; type: binding
[2] = target: pKSI^D40N (Pseudomonas putida, UniProt P07445, D34C/D40N); type: binding; conditions: pH 7.2, 25 °C
[3] = Enthalpies of ionization of phenols by titration with NaOH; type: physicochemical
[4] = target: tKSI^D40N (ketosteroid isomerase) (Comamonas testosteroni, UniProt P00947, D38N); assay: biochemical; type: binding, Commamonas testosteroni
[5] = set-up: method as in earlier work; conditions: cited from earlier work
[6] = target: T1, tKSI^D40N (Comamonas testosteroni, UniProt P00947, D38N); conditions: read-out: apparent affinity, previous assay; pH 7; cited from earlier work
[7] = target: T1, tKSI^D40N; set-up: species or system Commamonas testosteroni; conditions: for δ1, chemical shift of most downfield peak in complex / δ2, chemical shift of second downfield peak in complex: pH 7.2, −3 °C
[8] = Determination of phenol pKa values (literature or spectral titration)
[9] = physchem
[10] = from literature; cited from earlier work
[11] = target: KSI; set-up: method as in PMID 7918439; conditions: less precise estimate; read-out: affinity of equilenin estimated by previous assays; cited from earlier work
[12] = pH 8, errors in parenthesis are average deviations, read-out: apparent affinity at pH 8 ([picture])
[13] = Displacement assay, phenolate form
[14] = Displacement assay, uncorrected for enzyme ionization enthalpy
[15] = apparent affinity at pH 8 ([picture]), pH 8, errors in parenthesis are average deviations
[16] = spectral titration, 25 °C, ionic strength 100 mM
[17] = solution with ionic strength 100 mM maintained with NaCl

pKSI^D40N, sequence (P07445 whole entry D34C/D40N): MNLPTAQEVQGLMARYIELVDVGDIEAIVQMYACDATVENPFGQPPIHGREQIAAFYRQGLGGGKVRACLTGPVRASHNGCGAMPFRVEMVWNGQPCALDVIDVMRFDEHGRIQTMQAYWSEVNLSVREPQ
pKSI^D40N (ketosteroid isomerase), sequence (P07445 whole entry D34C/D40N): as above
T1 sequence (P00947 whole entry D38N, looked up): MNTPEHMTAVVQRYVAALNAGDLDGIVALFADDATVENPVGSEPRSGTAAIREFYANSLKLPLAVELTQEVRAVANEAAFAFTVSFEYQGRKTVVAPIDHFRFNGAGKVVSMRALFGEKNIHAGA
tKSI^D40N (ketosteroid isomerase), sequence (P00947 whole entry D38N): as the sequence (P00947 whole entry D38N, looked up) above

Compound: Oc1cc(F)cc(F)c1 [3,5-F2]
Kd [1, 12]: 8.4 µM
∆G of binding ([2]; Direct Titration): -11.23 (0.03) kcal/mol
∆Hrel (relative enthalpy of binding) ([2]; Direct Titration): -6.9 (0.1) kcal/mol
∆G of binding [2, 13]: -11.1 (0.2) kcal/mol
∆Hrel (relative enthalpy of binding) [2, 14]: -6.7 (0.8) kcal/mol
∆Hion (heat of ionization) ([3]; Ionic strength 0.1): 5.73 (0.07)
Kd [4, 12]: 20 µM

Compound: Oc1ccccc1 [Phenol, phenol]
∆Hion Lit value [5]: 6.1 (0.2)
Kd [1, 15]: 135 µM
∆G of binding [2, 13]: -11.3 (0.1) kcal/mol
Kd [6]: 61 ± 10 µM
Kd [4, 15]: 410 µM
Kd ([4]; apparent affinity, new assay, pH 7): 430 ± 80 µM

Compound: Oc1cccc(C(F)(F)F)c1 [Phenol 3-CF3]
δ1, chemical shift of most downfield peak in complex [7]: 17.0 ppm
δ2, chemical shift of second downfield peak in complex [7]: 16.1 ppm
pKa [8, 16]: 8.7

Compound: O=[N+]([O-])c1ccc(O)cc1C(F)(F)F [Phenol 3-CF3-4-NO2]
δ1, chemical shift of most downfield peak in complex [7]: 14.9 ppm
δ2, chemical shift of second downfield peak in complex [7]: 14.5 ppm
pKa [8, 16]: 6.3

pKa [8, 17]: 7.1
Compound: Oc1cc(F)cc(F)c1F [2,3,5-F3, 2,3,5-trifluorophenol]

Compound: Oc1c(F)c(F)c(F)c(F)c1F [pentafluorophenol]
pKa [9]: 5.7

Compound: Oc1ccccc1F [Phenol 2-F, 2-fluorophenol]
pKa [10]: 8.8

Compound: Oc1cccc(Cl)c1 [Phenol 3-Cl]
δ1, chemical shift of most downfield peak in complex [7]: 17.1 ppm
δ2, chemical shift of second downfield peak in complex [7]: 15.6 ppm

Compound: Oc1ccc(I)cc1 [Phenol 4-I]
δ1, chemical shift of most downfield peak in complex [7]: 16.7 ppm

Compound: Oc1ccc(C(F)(F)F)cc1 [Phenol 4-CF3]
δ1, chemical shift of most downfield peak in complex [7]: 16.4 ppm
δ2, chemical shift of second downfield peak in complex [7]: 15.9 ppm
pKa [8, 16]: 8.9

Compound: Oc1ccc(Cl)c(Cl)c1 [3,4-Cl2, 3,4-dichlorophenol]
δ1, chemical shift of most downfield peak in complex [7]: 16.4 ppm
δ2, chemical shift of second downfield peak in complex [7]: 15.6 ppm
pKa [9]: 8.5

Compound: O=[N+]([O-])c1cccc(O)c1 [Phenol 3-NO2]
δ1, chemical shift of most downfield peak in complex [7]: 16.4 ppm
δ2, chemical shift of second downfield peak in complex [7]: 15.5 ppm

Compound: Oc1cc(F)c(F)c(F)c1 [3,4,5-F3, 3,4,5-trifluorophenol]
δ1, chemical shift of most downfield peak in complex [7]: 16.3 ppm
δ2, chemical shift of second downfield peak in complex [7]: 14.9 ppm
Kd [1, 15]: 6.1 µM
∆G of binding ([2]; Direct Titration): -11.51 (0.04) kcal/mol
∆Hrel (relative enthalpy of binding) ([2]; Direct Titration): -6.0 (0.1) kcal/mol
∆G of binding [2, 13]: -11.1 (0.1) kcal/mol
∆Hrel (relative enthalpy of binding) [2, 14]: -5.8 (0.3) kcal/mol
pKa [8]: 8.2
pKa [8, 17]: 8.2
∆Hion (heat of ionization) ([3]; Ionic strength 0.1): 5.62 (0.06)
Kd [4]: 17 µM

Compound: Oc1cc(Cl)cc(Cl)c1 [3,5-Cl2]
δ1, chemical shift of most downfield peak in complex [7]: 16.6 ppm
δ2, chemical shift of second downfield peak in complex [7]: 14.8 ppm
pKa [8, 16]: 8.1

Compound: O=[N+]([O-])c1ccc(O)cc1 [Phenol 4-NO2, 4-nitrophenol]
δ1, chemical shift of most downfield peak in complex [7]: 15.0 ppm
δ2, chemical shift of second downfield peak in complex [7]: 14.8 ppm
Kd ([1]; apparent affinity of the phenol for the enzyme (Equation 3), pH 6.9): 1.8 ± 0.2 µM
Kd ([1]; pH-independent affinity of the phenolate form for the protonated enzyme (Equation 4), converted from apparent affinity at pH 6.9): 0.026 ± 0.002 µM

Compound: Oc1ccc(F)cc1F [2,4-F2]
pKa [8, 16]: 8.6^b

Compound: CCc1cccc(O)c1 [Phenol 3-ethyl, 3-ethylphenol]
pKa [10]: 9.9

Compound: Oc1cccc(I)c1 [Phenol 3-I, 3-iodophenol]
δ1, chemical shift of most downfield peak in complex [7]: 16.8 ppm
δ2, chemical shift of second downfield peak in complex [7]: 15.9 ppm
pKa [10]: 9.2

pKa [8, 17]: 9.8
Compound: Cc1cc(O)ccc1F [Phenol 4-F-3-CH3, 4-Fluoro-3-methylphenol]

pKa [8, 17]: 7.7
Compound: Oc1cc(F)c(F)cc1F [2,4,5-F3, 2,4,5-trifluorophenol]

Compound: Oc1cccc(Br)c1 [Phenol 3-Br]
δ1, chemical shift of most downfield peak in complex [7]: 17.0 ppm
δ2, chemical shift of second downfield peak in complex [7]: 15.6 ppm

Compound: N#Cc1cccc(O)c1 [Phenol 3-CN]
δ1, chemical shift of most downfield peak in complex [7]: 16.4 ppm
δ2, chemical shift of second downfield peak in complex [7]: 15.6 ppm

Compound: N#Cc1ccc(O)cc1 [Phenol 4-CN, 4-cyanophenol]
δ1, chemical shift of most downfield peak in complex [7]: 15.6 ppm
Kd ([1]; Kd from fit of pH dependence of binding to Equation 4, phenol pKa fixed at 8.0, enzyme pKa 5.5): 0.016 ± 0.002 µM

pKa [8, 17]: 9.9
Compound: CC(C)c1cccc(O)c1 [Phenol 3-isopropyl, 3-isopropylphenol]

Compound: Oc1cc(F)ccc1F [2,5-F2]
pKa [8, 16]: 7.7^b

Compound: Oc1cccc(F)c1 [Phenol 3-F, 3-fluorophenol]
Kd [1, 15]: 41 µM
∆G of binding [2, 13]: -11.10 (0.05) kcal/mol
∆Hion (heat of ionization) ([3]; Ionic strength 0.1): 6.29 (0.05)
Kd [4]: 110 µM

Compound: Oc1ccc(F)c(F)c1F [2,3,4-F3]
pKa [8, 16]: 7.7^b

Compound: Oc1cc(F)cc(C(F)(F)F)c1 [Phenol 3-F-5-CF3, 3-fluoro-5-(trifluoromethyl)phenol]
δ1, chemical shift of most downfield peak in complex [7]: 16.4 ppm
δ2, chemical shift of second downfield peak in complex [7]: 15.6 ppm
pKa ([8]; solution of ionic strength 100 mM maintained with NaCl): 8.2

Compound: O=[N+]([O-])c1ccc(O)cc1F [Phenol 3-F-4-NO2, 3-fluoro-4-nitrophenol]
δ1, chemical shift of most downfield peak in complex [7]: 14.4 ppm
δ2, chemical shift of second downfield peak in complex [7]: 14.3 ppm
pKa [9]: 6.1

Compound: Oc1ccc(F)c(F)c1 [3,4-F2]
Kd [1, 12]: 31 µM
∆G of binding [2, 13]: -11.14 (0.01) kcal/mol
∆Hrel (relative enthalpy of binding) [2, 14]: -8.53 (0.05) kcal/mol
∆Hion (heat of ionization) ([3]; Ionic strength 0.1): 7.04 (0.06)
Kd [4, 12]: 69 µM

Compound: C[C@]12CCc3c(ccc4cc(O)ccc34)[C@@H]1CCC2=O [equilenin]
chemical shift of the principal downfield peak upon binding ([7]; spectrum not shown): 17.6 ppm
Kd [11]: 0.0001 to 0.001 µM
pKa ([8]; solution of 100 mM ionic strength maintained with NaCl): 9.7

Compound: Oc1ccc(Cl)cc1 [Phenol 4-Cl, 4-chlorophenol]
Kd [6]: 7.9 ± 1.3 µM
Kd [4]: 40 ± 7 µM

Compound: CC(C)c1ccc(O)cc1 [Phenol 4-isoproyl, 4-isopropylphenol]
pKa [9]: 10

Compound: Oc1cccc(F)c1F [2,3-F2]
pKa [8, 16]: 7.7^b

Compound: Cc1ccc(O)cc1 [Phenol 4-methyl, 4-methylphenol]
pKa [10]: 10.2

Compound: Oc1ccc(F)cc1 [Phenol 4-F]
∆Hion Lit value [5]: 5.93 (0.05)
Kd [1, 12]: 133 µM
∆G of binding [2, 13]: -11.34 (0.02) kcal/mol
∆Hrel (relative enthalpy of binding) [2, 14]: -9.8 (0.1) kcal/mol
∆Hion (heat of ionization) ([3]; Ionic strength 0.0): 5.97 (0.03)
∆Hion (heat of ionization) ([3]; Ionic strength 0.1): 6.21 (0.06)
Kd [4, 12]: 320 µM

Compound: O=[N+]([O-])c1cc(O)ccc1Cl [Phenol 3-NO2-4-Cl]
δ1, chemical shift of most downfield peak in complex [7]: 15.8 ppm
δ2, chemical shift of second downfield peak in complex [7]: 15.4 ppm
pKa [8, 16]: 7.8

Compound: CC(=O)c1ccc(O)cc1 [Phenol 4-acetyl, 4-Acetylphenol]
δ1, chemical shift of most downfield peak in complex [7]: 16.0 ppm
δ2, chemical shift of second downfield peak in complex [7]: 15.4 ppm
pKa [10]: 8.1
